System: Human lung cancer-derived Calu 6 (HTB-56)
Experiment: Example 1: anti-tumor effect of FK330 alone or combined with chemotherapeutic agents in Calu-6 tumor-bearing nude mice
Assay type: in vivo
Excerpt: A free-form dihydrate of FK330 was used. Hereinafter, the amount of FK330 administered is expressed in weight of the dihydrate. A docetaxel hydrate injectable preparation (Taxotere (trademark), for intravenous infusion) was purchased from Sanofi-Aventis SA, and was used as docetaxel. A paclitaxel injectable preparation (paclitaxel injection liquid “Sawai”) was purchased from Sawai Pharmaceutical Co., Ltd., and was used as paclitaxel. Irinotecan hydrochloride (Topotesin (trade name) injection) was purchased from Daiichi Sankyo Co., Ltd., and was used as irinotecan. Gemcitabine hydrochloride for injection (Gemzar (trade name) injection) was purchased from Eli Lilly Japan K.K., and was used as gemcitabine. Doxorubicin hydrochloride for injection (Adriacin (trade name) Injection 10) was purchased from Kyowa Hakko Kogyo Co., Ltd., and was used as doxorubicin. A carboplatin injection liquid (Paraplatin (trade name) injection liquid) was purchased from Bristol Myers Squibb Co., and was used as carboplatin.
FK330 was suspended (20 mg/mL) in a 0.5% aqueous methyl cellulose solution (0.5% MC). Docetaxel was prepared in the attached dissolution liquid at 4 mg/mL, and was diluted with physiological saline (Otsuka Pharmaceutical Group) to 1 mg/mL. Paclitaxel, irinotecan, gemcitabine, doxorubicin, and carboplatin were prepared with physiological saline for injection at the time of use at concentrations of 1 mg/mL, 3 mg/mL, 16 mg/mL, 1 mg/mL, and 6 mg/mL, respectively.
Human lung cancer-derived Calu 6 (HTB-56) was obtained from American Type Culture Collection (VA, USA). The cells were cultured under the conditions of 37° C. and 5% CO2 by using RPMI1640 medium containing 10% heat-inactivated fetal bovine serum (FBS). The cells were harvested with trypsin and were suspended in PBS at 6×10^7 cells/mL, and the suspension was mixed with an equal amount of Matrigel (trade name) Basement Membrane Matrix (manufactured by Becton Dickinson Co., Bedford, Mass., USA).
Five-week old male nude mice (CAnN Cg-Foxn1nu/CrlCrlj(nu/nu)) were purchased from Charles River Laboratories Japan, Inc. (Japan, Kanagawa). The animals were raised under specific pathogen-free (SPF) conditions throughout the test period by feeding standard feedstuff and drinking water. The cultured cells were subcutaneously inoculated into the dorsal region of the nude mice at a concentration of 3×10^6 cells/0.1 mL/mouse. Nude mice which had the tumor volumes (major axis×[minor axis]^2×0.52) ranging from 111.9 mm^3 to 369.3 mm^3 were assigned by using SAS to minimize the fluctuation in tumor volume between the groups and within the group.
The first day of administration was designated as Day 1, and observation was made until Day 29. The respective groups (n=5 or 6) were treated as follows. FK330 was orally gavaged (5 mL/kg) twice a day at an interval of 6 to 8 hours, and each of the chemotherapeutic agents was administered by intravenous bolus injection (10 mL/kg) through the tail vein.
FK330 single administration group: 100 mg/kg of FK330 was administered twice a day (bid) (200 mg/kg/day, administered every day from the initiation of experiment to the completion)
Docetaxel single administration group: Docetaxel 10 mg/kg/day (Day 1, 5 and 9)
Paclitaxel single administration group: Paclitaxel 10 mg/kg/day (Day 1 through 7)
Irinotecan single administration group: lrinotecan 30 mg/kg/day (Day 1 through 7)
Gemcitabine single administration group: Gemcitabine 160 mg/kg/day (Day 1, 4 and 7)
Doxorubicin single administration group: Doxorubicin 10 mg/kg/day (Day 1 and 8)
Carboplatin single administration group: Carboplatin 60 mg/kg/day (Day 1 and 2)
FK330 100 mg/kg bid+Docetaxel 10 mg/kg/day (Day 1, 5 and 9), n=6
FK330 100 mg/kg bid+Paclitaxel 10 mg/kg/day (Day 1 through 7), n=6
FK330 100 mg/kg bid+Irinotecan 30 mg/kg/day (Day 1 through 7), n=6
FK330 100 mg/kg bid+Gemcitabine 160 mg/kg/day (Day 1, 4 and 7), n=6
FK330 100 mg/kg bid+Doxorubicin 10 mg/kg/day (Day 1 and 8), n=6 […]

O=C(/C=C/c1ccc(Cl)cc1)N[C@@H](Cc1ccccn1)C(=O)NCC(=O)N1CCC(Oc2cc(C(F)(F)F)ncn2)CC1 [FK330, N^2-[(2E)-3-(4-chlorophenyl)-2-propenoyl]-N-[2-oxo-2-(4-{[6-(trifluoromethyl)pyrimidin-4-yl]oxy}piperidin-1-yl)ethyl]-3-pyridin-2-yl-L-alaninamide]
tumor volume reduction ratio compared with docetaxel-only group (Day 29, FK330 100 mg/kg bid p.o. + docetaxel 10 mg/kg/day i.v. (Day 1, 5 and 9), significant): 63.5%
tumor volume reduction ratio compared with doxorubicin-only group (Day 29, FK330 100 mg/kg bid p.o. + doxorubicin 10 mg/kg/day i.v. (Day 1 and 8), not significant): 33.5%
tumor volume reduction ratio compared with irinotecan-only group (Day 29, FK330 100 mg/kg bid p.o. + irinotecan 30 mg/kg/day i.v. (Day 1 through 7), not significant): 30.8%
tumor volume reduction ratio compared with paclitaxel-only group (Day 29, FK330 100 mg/kg bid p.o. + paclitaxel 10 mg/kg/day i.v. (Day 1 through 7), significant): 57.6%
effect of FK330 on the anti-tumor effect of carboplatin (FK330 100 mg/kg bid p.o. + carboplatin 60 mg/kg/day i.v. (Day 1 and 2)): did not affect
effect of FK330 on the anti-tumor effect of gemcitabine (FK330 100 mg/kg bid p.o. + gemcitabine 160 mg/kg/day i.v. (Day 1, 4 and 7)): did not affect
anti-tumor effect when FK330 was used alone (FK330 100 mg/kg bid p.o. alone, every day, observation until Day 29): not recognized
